Assay results reported in US7279444B2, “Substituted benzoylpyrazoles” (Bayer CropScience GmbH, priority 1999, dated 2007).
Marks after values point to notes of the source that are not given here.

tested on: not listed separately; assay: log P by HPLC on reversed-phase column (C 18), acidic range; assay type: physicochemical; conditions: not given
Protocol: Temperature: 43° C. […] The log P values given in Table 3 were determined in accordance with EEC Directive 79/831 Annex V.A8 by HPLC (High Performance Liquid Chromatography) on a reversed-phase column (C 18). Temperature: 43° C. […] The log P values given in Tables 4 were determined in accordance with EEC Directive 79/831 Annex V.A8 by HPLC (High Performance Liquid Chromatography) on a reversed-phase column (C 18). Temperature: 43° C.

Compound | logP
CCOC(=O)c1ccc(Br)c(Cn2nc(Br)n(C)c2=O)c1 [IV-39] | logP = 2.64^a)
CCOC(=O)c1ccc(Br)c(Cn2nc(C3CC3)n(C3CC3)c2=O)c1 [IV-41] | logP = 3.02^a)
CCOC(=O)c1ccc(Cl)cc1Cn1nc(OCC)n(C2CC2)c1=O [IV-42] | logP = 3.23^a)
CCOC(=O)c1ccc(Cl)cc1Cn1nc(C(F)(F)F)n(C)c1=O [IV-43] | logP = 3.31^a)
CCOC(=O)c1ccc([N+](=O)[O-])cc1Cn1nc(SC)n(C)c1=O [IV-46] | logP = 2.82^a)
CCOC(=O)c1ccc(C(F)(F)F)cc1Cn1nc(CC)n(OCC)c1=O [IV-48] | logP = 3.38^a)
CCCOC(=O)c1ccc(C(F)(F)F)cc1Cn1nc(OCC)n(C2CC2)c1=O [IV-50] | logP = 3.91^a)
CCOC(=O)c1ccc(Br)cc1CN1C(=O)CCC1=O [IV-60] | logP = 2.44^a)
CCOC(=O)c1ccc(Br)cc1Cn1nc(OCC(F)(F)F)n(C)c1=O [IV-67] | logP = 3.31^a)
CCOC(=O)c1ccc(Br)cc1Cn1nc2n(c1=O)CCC2 [IV-68] | logP = 2.16^a)
CCOC(=O)c1ccc(Br)cc1CN1CCOC1=O [IV-72] | logP = 2.36^a)
CCOC(=O)c1ccc(Br)cc1Cn1nc(C)oc1=O [IV-73] | logP = 2.88^a)
CCOC(=O)c1ccc(C(F)(F)F)cc1Cn1cnn(C)c1=O [IV-74] | logP = 2.68^a)
CCOC(=O)c1ccc(Br)cc1Cn1nc(Br)n(C)c1=O [IV-75] | logP = 2.80^a)
CCOC(=O)c1ccc(C(F)(F)F)cc1Cn1nc(COC)n(C2CC2)c1=O [IV-77] | logP = 2.88^a)
CCOC(=O)c1ccc(Br)cc1Cn1nc(SC)n(C)c1=O [IV-80] | logP = 2.86^a)
CCOC(=O)c1ccc(Cl)cc1Cn1nc(SC)n(C)c1=O [IV-81] | logP = 2.83^a)
CCOC(=O)c1ccc(Br)cc1Cn1nc(N(C)C)n(C)c1=O [IV-82] | logP = 2.60^a)
CCOC(=O)c1ccc(C(F)(F)F)cc1Cn1nc(OCC(F)(F)F)n(C)c1=O [IV-93] | logP = 3.45^a)
CCOC(=O)c1ccc(F)cc1Cn1nc(COC)n(C)c1=O [IV-96] | logP = 2.05^a)
CCOC(=O)c1ccc(F)cc1Cn1nc(OC)n(C2CC2)c1=O [IV-97] | logP = 2.50^a)
CCOC(=O)c1ccc(C(F)(F)F)cc1CN1N=C(C)C(C)(C)C1=O [IV-99] | logP = 2.91^a)
CCOC(=O)c1ccc(C(F)(F)F)cc1Cn1c(=O)n(C)c(=O)n1C [IV-113] | logP = 2.58^a)
CCOc1nn(Cc2cc(S(C)(=O)=O)ccc2C(=O)OC)c(=O)n1C [IV-115] | logP = 1.59^a)
CCOc1nn(Cc2cc(I)ccc2C(=O)OC)c(=O)n1C [IV-116] | logP = 2.68^a)
CCOc1nn(Cc2cc(C(F)(F)F)ccc2C(=O)OC)c(=O)n1C [IV-117] | logP = 2.74^a)
CCOC(=O)c1ccc(C(F)(F)F)cc1Cn1nc(Br)n(C)c1=O [IV-119] | logP = 2.96^a)

The remaining lines, values ahead:

logP | Compound
logP = 2.06^a) | CCOC(=O)c1ccc(Br)c(Cn2nc(C)n(C)c2=O)c1 [IV-38]
logP = 3.23^a) | CCOC(=O)c1ccc(Br)c(Cn2nc(C(F)(F)F)n(C)c2=O)c1 [IV-40]
logP = 3.14^a) | CCOC(=O)c1ccc(Cl)cc1Cn1nc(CC)n(OCC)c1=O [IV-44]
logP = 2.42^a) | CCOC(=O)c1ccc([N+](=O)[O-])cc1Cn1nc(OCC)n(C2CC2)c1=O [IV-45]
logP = 3.48^a) | CCOC(=O)c1ccc(C(F)(F)F)cc1Cn1nc(OCC)n(C2CC2)c1=O [IV-47]
logP = 3.02^a) | CCOC(=O)c1ccc(C(F)(F)F)cc1Cn1nc(SC)n(C)c1=O [IV-49]
logP = 2.95^a) | CCOC(=O)c1ccc(Br)cc1Cn1nc(OCC)n(C)c1=O [IV-58]
logP = 3.34^a) | CCOC(=O)c1ccc(Br)cc1Cn1nc(OC(C)C)n(C)c1=O [IV-65]
logP = 3.38^a) | CCCOc1nn(Cc2cc(Br)ccc2C(=O)OCC)c(=O)n1C [IV-66]
logP = 2.41^a) | CCOC(=O)c1ccc(Br)cc1Cn1nc2n(c1=O)CCCC2 [IV-69]
logP = 3.51^a) | CCOC(=O)c1ccc(C(F)(F)F)cc1Cn1nc(OC(C)C)n(C)c1=O [IV-70]
logP = 3.54^a) | CCCOc1nn(Cc2cc(C(F)(F)F)ccc2C(=O)OCC)c(=O)n1C [IV-71]
logP = 2.60^a) | CCOC(=O)c1ccc(C(F)(F)F)cc1Cn1nc(COC)n(C)c1=O [IV-78]
logP = 3.35^a) | CCOC(=O)c1ccc(C(F)(F)F)cc1Cn1nc(Br)n(C2CC2)c1=O [IV-79]
logP = 2.79^a) | CCOC(=O)c1ccc(C(F)(F)F)cc1Cn1nc(N(C)C)n(C)c1=O [IV-85]
logP = 2.21^a) | CCOC(=O)c1ccc(F)cc1Cn1nc(N(C)C)n(C)c1=O [IV-94]
logP = 2.96^a) | CCCOc1nn(Cc2cc(F)ccc2C(=O)OCC)c(=O)n1C [IV-95]
logP = 2.89^a) | CCOC(=O)c1ccc(F)cc1Cn1nc(OCC)n(C2CC2)c1=O [IV-98]
logP = 1.53^a) | COC(=O)c1ccc(S(C)(=O)=O)cc1Cn1nc(SC)n(C)c1=O [IV-114]
logP = 2.65^a) | COC(=O)c1ccc(C(F)(F)F)cc1Cn1nc(SC)n(C)c1=O [IV-118]

same assay, conditions: marked a): acidic range, 0.1% aqueous phosphoric acid/acetonitrile gradient, HPLC reversed-phase C 18, 43° C.; Table 1

Compound | logP
CCOc1nn(Cc2cc(C(F)(F)F)ccc2C(=O)c2cnn(CC)c2O)c(=O)n1C [Example 2] | logP = 2.34^a)
CCn1ncc(C(=O)c2ccc(C(F)(F)F)cc2Cn2nc(SC)n(C)c2=O)c1O [Example 3] | logP = 2.22^a)

tested on: crop plants such as, for example, corn; assay: Pre-emergence test, tolerance by crop plants; assay type: in vivo; conditions: rated after three weeks
Protocol: (§1) Pre-Emergence Test Solvent: 5 parts by weight of acetone Emulsifier: 1 part by weight of alkylaryl polyglycol ether To produce a suitable preparation of active compound, 1 part by weight of active compound is mixed with the stated amount of solvent, the stated amount of emulsifier is added and the concentrate is diluted with water to the desired concentration. Seeds of the test plants are sown in normal soil. After about 24 hours, the soil is sprayed with the preparation of active compound such that the particular amount of active compound is applied per unit area. The concentration of the spray liquor is chosen such that the particular amount of active compound desired is applied in 1000 liters of water per hectare. After three weeks, the degree of damage to plants is rated in % damage in comparison to the development of the untreated control. The figures denote: • 0%=no effect (like untreated control) • 100%=total destruction

Compound | tolerance by crop plants
CCOc1nn(Cc2cc(C(F)(F)F)ccc2C(=O)c2cnn(CC)c2O)c(=O)n1C [Example 2] | tolerated well
CCn1ncc(C(=O)c2ccc(C(F)(F)F)cc2Cn2nc(SC)n(C)c2=O)c1O [Example 3] | tolerated well

tested on: weeds; assay: Post-emergence test, activity against weeds; assay type: in vivo; conditions: test plants of 5-15 cm sprayed, rated after three weeks
Protocol: Solvent: 5 parts by weight of acetone
Emulsifier: 1 part by weight of alkylaryl polyglycol ether
To produce a suitable preparation of active compound, 1 part by weight of active compound is mixed with the stated amount of solvent, the stated amount of emulsifier is added and the concentrate is diluted with water to the desired concentration.
Test plants of a height of 5-15 cm are sprayed with the preparation of active compound such that the particular amounts of active compound are applied per unit area. The concentration of the spray liquor is chosen such that the particular amounts of active compound desired are applied in 10001 of water/ha.
After three weeks, the degree of damage to the plants is rated in % damage in comparison to the development of the untreated control.
• 0%=no effect (like untreated control) • 100%=total destruction

Compound | activity against weeds (degree of damage)
CCOc1nn(Cc2cc(C(F)(F)F)ccc2C(=O)c2cnn(CC)c2O)c(=O)n1C [Example 2] | strong activity
CCn1ncc(C(=O)c2ccc(C(F)(F)F)cc2Cn2nc(SC)n(C)c2=O)c1O [Example 3] | strong activity

tested on: weeds; assay: Pre-emergence test, activity against weeds; assay type: in vivo; conditions: soil sprayed about 24 hours after sowing, rated after three weeks
Protocol: as §1

Compound | activity against weeds (degree of damage)
CCOc1nn(Cc2cc(C(F)(F)F)ccc2C(=O)c2cnn(CC)c2O)c(=O)n1C [Example 2] | strong activity
CCn1ncc(C(=O)c2ccc(C(F)(F)F)cc2Cn2nc(SC)n(C)c2=O)c1O [Example 3] | strong activity

tested on: not given; assay: not given; conditions: not given

Compound | melting point [°C]
Cn1c(C(F)(F)F)nn(Cc2c(Cl)ccc(C(=O)O)c2Cl)c1=O [III-3, 4-methyl-5-trifluoromethyl-2-(2,6-dichloro-3-carboxy-benzyl)-2,4-dihydro-3H-1,2,4-triazol-3-one] | 207
COC(=O)c1ccc(Cl)c(Cn2nc(C(F)(F)F)n(C)c2=O)c1Cl [IV-2, 4-methyl-5-trifluoromethyl-2-(2,6-dichloro-3-methoxycarbonyl-benzyl)-2,4-dihydro-3H-1,2,4-triazol-3-one] | 109
